System: HLA-A24 Tgm
Assay: Immunization of HLA-A24 Tgm with LP, ex vivo IFN-gamma ELISPOT
Type: in vivo, mouse
Details: HLA-A24 Tgm immunized three times with LP
Procedure: [FIG. 6C] In Part C, Induction of KIF20A-A24 (66-75) SP-specific CTLs in mice immunized with KIF20A (60-84) LP. HLA-A24 Tgm were immunized with KIF20A (60-84) LP. After the third vaccination with KIF20A (60-84) LP, mouse CD8^+ T-cells in the inguinal lymph nodes were stimulated with BM-DC pulsed with KIF20A-A24 (66-75) SP. The number of IFN-gamma producing murine CD8^+ T-cells was analyzed by ex vivo ELISPOT assay. Representative data from 5 independent experiments with similar results are shown.
The capacity of KIF20A (60-84) LP to prime KIF20A-A24 (66-75) SP-specific CTLs in vivo was examined by an ex vivo IFN-gamma ELISPOT assay. HLA-A24 Tgm were immunized three times with KIF20A (60-84) LP.

DSMEKVKVYLRVRPLLPSELERQED [KIF20A (60-84)]
IFN-gamma production of CD8^+ T-cells of vaccinated mice on stimulation with BM-DCs pulsed with KIF20A-A24 (66-75) SP: produced IFN-gamma
